Reference: US6384080B1, “Anthranilic acid derivatives as inhibitors of the cGMP-phosphodiesterase” (Fujisawa Pharmaceutical Co., Ltd., priority 1998, dated 2002)

Experiments:
[1] = molecular target: T1, human platelet PDE-V (Homo sapiens, UniProt O76074); assay: cGMP-Phosphodiesterase (PDE) assay, enzymatic inhibitory test; format: biochemical; conditions: human platelet PDE-V; 0.1 μM [3H]-cGMP substrate, 30° C., 10 minutes; read-out: Inhibitory activity IC50
T1 construct: Human platelet cGMP-PDE was separated from other isozymes in human platelets; from tissue; host or cells: human platelets
Experimental: cGMP-Phosphodiesterase (PDE) Assay
Human platelet cGMP-PDE was separated from other isozymes in human platelets by a modification of the method of Thompson et. al. (see Cyclic Nucleotide Phosphodiesterase (PDE), in Methods of Enzymatic analysis, Vol 4, p127-234, 1984). In enzyme inhibition assays, the test compounds were dissolved in DMSO and then diluted with assay buffer (50 mM Tris-HCl, 0.077 mg/ml dithiothreitol and 10 mg/ml snake venom, 1 mM EGTA, pH 8.0), at final concentrations ranging from 10^−10 to 10^−6 M. Assays were performed at 0.1 μM substrate ([^3H]-cGMP) concentration, at 30° C. for 10 minutes using enzyme dilutions which gave 10-20% hydrolysis of substrate. Each assay was initiated by addition of substrate and terminated by addition of anion exchange resin (Dowex® 1-X8, 250 mg/mg) followed by centrifugation for 10 minutes (3000 rpm, at 4° C.). Radioactivity of supernatant (^3H-GMP) was assayed by liquid scintillation counting.

IC50 [1] [nM] | melting point [°C] | SMILES
< 10 | 178 to 179 | Cc1ccc(CNC(=O)c2cc([N+](=O)[O-])ccc2N[C@@H](C)CO)cc1Cl [(S)-N-(3-Chloro-4-methylbenzyl)-2-(2-hydroxy-1-methylethylamino)-5-nitrobenzamide]
 | 131 to 132 | COc1ccc(CNC(=O)c2cc([N+](=O)[O-])ccc2N[C@@H](C)CO)cc1OC [Example 68, (S)-N-(3,4-Dimethoxybenzyl)-2-(2-hydroxy-1-methyl-ethylamino)-5-nitrobenzamide]
 | 98 to 101 | COc1cc(CNC(=O)c2cc([N+](=O)[O-])ccc2N[C@@H](C)CO)cc(OC)c1 [Example 107, (S)-N-(3,5-Dimethoxybenzyl)-2-(2-hydroxy-1-methylethyl)amino-5-nitrobenzamide]
< 10 | 235 to 238 | O=C(NCc1ccc(F)c(Cl)c1)c1cc([N+](=O)[O-])ccc1NC(CO)CO [N-(3-Chloro-4-fluorobenzyl)-2-[2-hydroxy-1-(hydroxymethyl)ethylamino]-5-nitrobenzamide]
 | 189 to 190 | COc1ccc(CNC(=O)c2cc(-c3ncc[nH]3)ccc2N[C@H]2CC[C@H](O)CC2)cc1OC [Example 90, N-(3,4-Dimethoxybenzyl)-2-(trans-4-hydroxycyclohexylamino)-5-(1H-imidazol-2-yl)benzamide]
< 10 | 157 to 158 | Cc1ccc(CNC(=O)c2cc([N+](=O)[O-])ccc2N[C@H]2CC[C@@H](O)CC2)cc1C [N-(3,4-Dimethylbenzyl)-2-(cis-4-hydroxycyclohexylamino)-5-nitrobenzamide]
 | 140 to 142 | COc1ccc(CNC(=O)c2cc([N+](=O)[O-])ccc2NNCC(F)(F)F)cc1OC [Example 69, N-(3,4-Dimethoxybenzyl)-5-nitro-2-[2-(2,2,2-trifluoroethyl)hydrazino]benzamide]
 | 166 to 168 | C[C@H](CO)Nc1ccc([N+](=O)[O-])cc1C(=O)NCc1ccc2c(c1)OCO2 [Example 7, (R)-2-(2-Hydroxy-1-methylethylamino)-5-nitro-N-(1,3-benzodioxol-5-ylmethyl)benzamide]
 | 233 to 234 | O=C(NCc1ccccc1)c1cc([N+](=O)[O-])ccc1N[C@H]1CC[C@H](O)CC1 [Example 51, N-benzyl-2-(trans-4-hydroxycyclohexylamino)-5-nitrobenzamide]
< 10 | 168 to 170 | O=C(NCc1ccc(-c2ccccc2)cc1)c1cc([N+](=O)[O-])ccc1N[C@H]1CC[C@@H](O)CC1 [2-(cis-4-Hydroxycyclohexylamino)-5-nitro-N-(4-phenylbenzyl)benzamide]
 | 176 to 177 | COc1cc(CNC(=O)c2cc([N+](=O)[O-])ccc2NC(CO)CO)ccc1Cl [Example 91, N-(4-Chloro-3-methoxybenzyl)-2-[2-hydroxy-1-(hydroxymethyl)ethylamino]-5-nitrobenzamide]
 | 128 to 130 | CC[C@@H](CO)Nc1ccc([N+](=O)[O-])cc1C(=O)NCc1ccc2c(c1)OCO2 [2(1), (S)-2-[1-(Hydroxymethyl)propylamino]-5-nitro-N-(1,3-benzodioxol-5-ylmethyl)benzamide]
 | 205 to 206 | O=C(NCc1ccc2c(c1)OCO2)c1cc([N+](=O)[O-])ccc1N[C@H]1CC[C@H](O)CC1 [Example 1(1), 2-(trans-4-hydroxycyclohexylamino)-5-nitro-N-(1,3-benzodioxol-5-ylmethyl)benzamide]
 | 154 to 155 | COc1ccc(CNC(=O)c2cc([N+](=O)[O-])ccc2N[C@@H]2CCC[C@H]2O)cc1OC (relative stereo) [Example 67, N-(3,4-Dimethoxybenzyl)-2-(trans-2-hydroxycyclopentylamino)-5-nitrobenzamide]
 | 171 to 173 | O=C(NCc1ccccc1)c1cc([N+](=O)[O-])ccc1NC(CO)CO [Example 55, N-Benzyl-2-[2-hydroxy-1-(hydroxymethyl)ethylamino]-5-nitrobenzamide]
 | 140 | COc1ccc(CNC(=O)c2cc([N+](=O)[O-])ccc2NC2CC=CCC2)cc1F (centres unmarked) [153(3), 2-(3-cyclohexenylamino)-N-(3-fluoro-4-methoxybenzyl)-5-nitrobenzamide]
< 10 | 127 to 129 | C[C@H](CO)Nc1ccc([N+](=O)[O-])cc1C(=O)NCc1ccc(Oc2ccccc2)cc1 [(R)-2-(2-Hydroxy-1-methylethyl)amino-5-nitro-N-(4-phenoxybenzyl)benzamide]
 | 226.5 to 227 | COc1ccc(CNC(=O)c2cc([N+](=O)[O-])ccc2Nc2ccc3[nH]cnc3c2)cc1OC [Example 80, 2-(1H-Benzimidazol-5-ylamino)-N-(3,4-dimethoxybenzyl)-5-nitrobenzamide]
< 10 | 150 to 152 | COc1ccc(CNC(=O)c2cc([N+](=O)[O-])ccc2N[C@@H](CO)CCSC)cc1OC [N-(3,4-dimethoxylbenzyl)-2-[(R)-1-hydroxymethyl-3-(methylthio)propylamino]-5-nitrobenzamide]
 | 142 to 143.5 | COc1ccc(CNC(=O)c2cc(C#N)ccc2N[C@@H](C)CO)cc1OC [88(1), (S)-5-Cyano-N-(3,4-dimethoxybenzyl)-2-(2-hydroxy-1-methylethylamino)benzamide]
 | 168 to 169 | CC[C@@H](CO)Nc1ccc([N+](=O)[O-])cc1C(=O)NCc1ccc(OC)c(OC)c1 [Example 65, (S)-N-(3,4-Dimethoxybenzyl)-2-[1-(hydroxymethyl)-propylamino]-5-nitrobenzamide]
 | 161 to 162 | COc1ccc(CNC(=O)c2cc([N+](=O)[O-])ccc2NC(C)(C)CO)cc1OC [Example 66, N-(3,4-Dimethoxybenzyl)-2-(2-hydroxy-1,1-dimethyl-ethylamino)-5-nitrobenzamide]
 | 108 to 110 | COc1ccc(CNC(=O)c2cc(S(=O)(=O)N3CCNCC3)ccc2N[C@H]2CC[C@H](O)CC2)cc1OC [153(2), N-(3,4-Dimethoxybenzyl)-2-(trans-4-hydroxycyclohexylamino)-5-(piperazinosulfonyl)benzamide]
 | 234 to 235.5 | COc1cc(CNC(=O)c2cc(S(C)(=O)=O)ccc2N[C@H]2CC[C@H](O)CC2)ccc1Cl [Example 102, N-(4-Chloro-3-methoxybenzyl)-2-(trans-4-hydroxycyclohexylamino)-5-methanesulfonylbenzamide]
< 10 | 112 to 115 | CCCCC(CO)Nc1ccc([N+](=O)[O-])cc1C(=O)NCc1ccc2c(c1)OCO2 (centres unmarked) [2-[1-(1-Hydroxymethyl)pentylamino]-5-nitro-N-(1,3-benzodioxol-5-ylmethyl)benzamide]

SMILES | IC50 [1] [nM] | melting point [°C]
COc1ccc(CNC(=O)c2cc([N+](=O)[O-])ccc2N[C@H]2CC[C@@H](OC(C)=O)CC2)cc1OC [2-[cis-4-(acetoxy)cyclohexylamino]-N-(3,4-dimethoxybenzyl)-5-nitrobenzamide] | < 10 | 147 to 148
COc1ccc(CNC(=O)c2cc(S(=O)(=O)N3CCN(C(=O)OC(C)(C)C)CC3)ccc2N[C@H]2CC[C@H](O)CC2)cc1OC [153(1), 5-[4-(tert-Butoxycarbonyl)piperazin-1-ylsulfonyl]-N-(3,4-dimethoxybenzyl)-2-(trans-4-hydroxycyclohexylamino)benzamide] |  | 221 to 222
